# Test results reported in article PMC6382696, “Drug Repurposing: The Anthelmintics Niclosamide and Nitazoxanide Are Potent TMEM16A Antagonists That Fully Bronchodilate Airways” (Frontiers in Pharmacology, 2019).
# pEC50, pIC50: −log10 of the molar value. Values joined by “and” are separate entries in the source; they are usually repeats but may differ in a detail not shown here. Equal entries are not always repeated. “Also recorded” adds a separate entry of the source. Where two headings read alike, the source gives them in different places.
# Key:
# [1] = system: Wnt/β-catenin transcription; experiment: Wnt/β-catenin transcription TOPFlash reporter assay; assay type: cell-based; details: Wnt TopFlash IC50 over TMEM16A eYFP IC50
# [2] = system: Wnt/β-catenin transcription; details: ref Mook et al. (2015); read-out: Mook et al. Wnt/β-catenin TopFlash (IC50); cited from earlier work
# hTMEM16A (abc) = molecular target: T1, hTMEM16A (abc) (Homo sapiens, UniProt Q5XXA6, DEL476-501); experiment: medchem TMEM16A halide-sensitive YFP assay, 22-point dose-response; assay type: cell-based; parameters: expressed in transfected cells; details: iodide as permeant anion, maximum concentration 55.6
# T1 sequence (Q5XXA6 with tags, fused parts or gaps isoform Q5XXA6-5 DEL539-564): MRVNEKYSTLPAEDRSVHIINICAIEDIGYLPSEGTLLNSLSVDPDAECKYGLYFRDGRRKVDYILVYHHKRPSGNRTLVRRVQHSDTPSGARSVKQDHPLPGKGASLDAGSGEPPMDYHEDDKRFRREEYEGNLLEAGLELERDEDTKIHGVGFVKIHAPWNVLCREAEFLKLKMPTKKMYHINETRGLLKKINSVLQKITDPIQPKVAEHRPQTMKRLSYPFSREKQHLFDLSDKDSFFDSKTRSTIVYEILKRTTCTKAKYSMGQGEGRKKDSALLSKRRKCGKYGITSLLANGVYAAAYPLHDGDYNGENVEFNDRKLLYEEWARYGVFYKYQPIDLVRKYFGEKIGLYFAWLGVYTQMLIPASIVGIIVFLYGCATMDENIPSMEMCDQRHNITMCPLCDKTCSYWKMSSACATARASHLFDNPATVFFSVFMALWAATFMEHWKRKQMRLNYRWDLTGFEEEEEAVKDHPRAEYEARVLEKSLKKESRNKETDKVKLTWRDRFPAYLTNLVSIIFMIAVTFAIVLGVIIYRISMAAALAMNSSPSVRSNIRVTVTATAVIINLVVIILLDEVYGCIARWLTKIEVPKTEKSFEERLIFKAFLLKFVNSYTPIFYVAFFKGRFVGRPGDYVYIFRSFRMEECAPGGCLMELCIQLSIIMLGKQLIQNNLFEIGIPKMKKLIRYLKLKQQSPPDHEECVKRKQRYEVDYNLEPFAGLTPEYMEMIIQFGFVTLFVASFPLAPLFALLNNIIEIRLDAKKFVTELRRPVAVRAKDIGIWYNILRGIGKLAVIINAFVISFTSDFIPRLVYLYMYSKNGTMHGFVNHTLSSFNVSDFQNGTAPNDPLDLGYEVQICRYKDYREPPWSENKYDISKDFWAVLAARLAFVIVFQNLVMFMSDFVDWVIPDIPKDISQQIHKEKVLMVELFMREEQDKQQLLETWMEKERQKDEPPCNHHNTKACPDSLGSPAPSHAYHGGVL
# Description: The TMEM16A HEK293T eYFP (H149Q, I153L) stable cell line for medchem support was generated by transfecting 10 μg of linearized hTMEM16A(abc) DNA constructs into HEK293T eYFP (H149Q,I153L) stable cells. The transfected cells were cultured under 200 μg/ml of hygromycin B selection for 20 days and the stable pool was single cell seeded in 96 well plate and duplicated plate were made after single cell clones were formed. YFP function assay were performed on duplicated plate and clones producing higher changes in fluorescence from the YFP assay were chosen for further expansion to form a stable cell line.
# Plates were incubated for 24 h at 37°C with 5% CO2. On the assay day, medium was removed and replaced with 20 μl/well of assay buffer (Hank’s Balanced Salt Solution with 10 mM HEPES pH 7.4), 10 μl/well of 40x diluted compounds was added to assay plate and it was incubated at room temperature for 30 min, after which baseline fluorescence was read in the FLIPR instrument for 10 s. Then, 5 μl/well of a 3x trigger solution (24 mM iodide, 3 μM ionomycin in assay buffer) was added and the fluorescence kinetic trace was recorded for 2 min.
# mouse tracheal rings [3] = experiment: Wire myograph bronchodilation of carbachol pre-contracted mouse tracheal rings
# Description: The trachea from C57 BL/6 mice was dissected and collected in PBS with Mg^2+ and Ca^2+. After further trimming, two 2 mm sections (rings) per trachea were then placed in DMEM media containing PSG/HEPES/AA/NaPyr for 1 h and used immediately or maintained overnight at 37°C in a humidified incubator with 5% CO2. Rings were then mounted into chambers of DMT wire myograph containing L-shaped mounting pins with 2–3 mN of force applied to secure rings on the pins and the rings were allowed to equilibrate for 25–30 min in a physiological saline buffer (PSS, 130 mM NaCl, 4.7 mM KCl, 1.2 mM MgS04, 14.9 mM NaHCO3, 1.2 mM KH2PO4, 0.026 mM EDTA, 1.6 mM CaCl2, 5.5 mM Dextrose). Throughout the experiment, rings were maintained at physiological temperature and gas conditions by heating buffer reservoir and chamber to 37°C and bubbling a 95% O2, 5% CO2 gas mixture into chamber.
# After equilibration, a standard tissue “Wake-Up” procedure was applied by altering tension and then treatment with elevated potassium as follows: 3 mN tension was applied for 5–10 min, then another 2–3 mN tension to total of 5.5 mN and then to 7–8 mN for another 5 min; the tissue pre-tension was then set to 5 mN and allowed to equilibrate for 5–10 min followed by the removal of the PSS buffer and addition of KPSS (60 mM KCl, 74.7 mM NaCl in PSS solution), with force changes monitored until they reached a plateau. The tissue was then washed four times with PSS over 5 min and the KPSS treatment and washes repeated; the tissue was then allowed to sit in PSS for 10 min and the tension was set to 5 mN.
# The tissue was then washed three times and then three times more with PSS for 5 min until tension returned to baseline.
# Only tissue that passed the qualification tests above advanced to studies on test article compounds. […] For standard ascending dose-response studies on TMEM16A antagonists, an EC75 or EC95 concentration of CCh was used to pre-contract tracheal rings.
# human bronchial rings = experiment: Wire myograph bronchodilation of histamine pre-contracted human bronchial rings (Biopta)
# Text: Details of bronchodilator studies shown in Figure 5H, 6 and Supplementary Figure 40 are provided below as part of the end assay report on Study CUR011 by Lee Christie (Biopta). Donors with any of the following conditions were excluded from the study: asthma, COPD, emphysema, lung cancer, cystic fibrosis, pulmonary fibrosis, pulmonary hypertension, pneumonia. Donors were also excluded if they had smoked in the past 12 months. Non-transplantable lung tissue was acquired from organ donors post mortem. Any macroscopically diseased/necrotic tissue was rejected. […] Human airway rings were set up under isometric conditions on a wire myograph in order to examine the influence of the test articles on bronchodilation. In order to assess tissue viability, the airways were challenged with carbachol (10 μM) and then isoprenaline (10 μM) to assess their constriction and relaxation responses, respectively. […] Viable airways were pre-constricted with histamine (10 μM), then exposed to one of the following cumulative concentration response curves (CCRCs): positive control, vehicle (water, volume matched to positive control), test article, vehicle (DMSO concentration matched to test articles). At the end of each CCRC, theophylline (2.2 mM) was added to induce maximal relaxation of the tissue. […] Airways were re-tensioned to 1.0 – 1.5 g if the tension had dropped below 1.0 g during the first 30 min of equilibration. (b) Airways were exposed to carbachol (bath concentration 10 μM) in order to measure their contractile responses and then isoprenaline (10 μM) in order to assess their relaxation. Airways were washed out and allowed to return to baseline. (c) Airways were pre-constricted with histamine (10 μM) before conducting a CCRC to the test article, the positive control (isoprenaline), test article vehicle or positive control vehicle.
# mouse tracheal rings [4] = experiment: Bronchodilation of mouse tracheal rings at differing levels of carbachol pre-contraction; details: for relaxation of airway rings: normalized to theophylline
# Description: Standard procedures as listed above were used to prepare, mount and Wake-Up tracheal rings and the concentrations of carbachol providing EC25, EC50, EC75, or EC95 levels of contraction for each ring was determined as described above.
# mouse tracheal rings [5] = experiment: Bronchodilation of cytokine-treated mouse tracheal rings; details: overnight IL-1β, TNFα, IL-13 100 ng/ml, EC75 carbachol
# Description: Airway rings were treated overnight in 2 ml DMEM + PSG/HEPES/AA/NaPyr buffer alone or with the same solution supplemented with 100 ng/ml of mTNFα, mIL-13 and mIL-1β. Unlike like the typical Wake-Up protocol and ring qualifying tests, mouse tracheal rings were not exposed to KPSS and rings were not observed to relax with a β-agonist following discovery of CCh dose-responses. After several washes with PSS, EC75 concentrations of CCh were used to pre-contract rings for >30 min alone or in the presence of cytokines.
# mouse tracheal rings [6] = experiment: β-agonist use-dependent desensitization of mouse tracheal rings; details: round 2
# Text: Standard procedures were used to prepare and mount tissues.
# mouse airway rings = experiment: Duration of bronchodilation after washout and carbachol re-challenge, mouse airway rings; details: EC75 carbachol, preliminary
# Description: Mouse airway rings were exposed to a typical Wake-Up procedure including the use of KPSS and discovery of EC75 CCh dose responses. However, no isoproterenol was used to observe tissue relaxation as part of the qualification procedure. With pre-contraction with EC75 CCh for >30 min, rings were subjected to a compound dose-response, followed by a complete washout of compound, and re-contracted with EC75 CCh. Traces were recorded for several hours thereafter and normalized to theophylline as control of 100% relaxation.
# [7] = supplement, read-out: TMEM16A eYFP Assay IC50
SMILES,"IC50 Ratio, Wnt/TMEM16A [1]",pIC50 [2],pIC50 (hTMEM16A (abc); [7]),also measured
O=C(Nc1ccc(F)cc1)c1cc(Cl)ccc1O [Cpd 16],15.36,5.42,6.60,
O=C(Nc1ccccc1)c1cc(Cl)ccc1O [Cpd 6],11.36,4.93,5.98,
CS(=O)(=O)c1ccc(NC(=O)c2cc(Cl)ccc2O)c(Cl)c1 [Cpd 8],1.62,5.12,5.33,
O=C(Nc1cccc(Cl)c1)c1cc(Cl)ccc1O [Cpd 10],18.33,5.78,7.05,
O=C(Nc1ccc(Cl)c(Cl)c1)c1cc(Cl)ccc1O [Cpd 14],8.11,6.14,,"pIC50 (hTMEM16A (abc); TMEM16A eYFP Assay IC50, supplement): 7.05"
O=C(Nc1cccc(C(F)(F)F)c1)c1cc(Cl)ccc1O [Cpd 9],6.85,6.05,6.89,
"CC(C)NCC(O)c1ccc(O)c(O)c1 (centres unmarked) [Isoproterenol, isoproterenol]",,,,"time to relax mouse tracheal rings (mouse tracheal rings [3]; EC75 carbachol, 10 nM dose (Supplementary Figure 39)): 2 – 4 min and 2 − 4 min; pEC50 (mouse tracheal rings [3]; EC75 carbachol, Exp 1-3, read-out: EC50 relaxation of mouse tracheal rings, individual experiments): 8.23 and 8.11; pEC50 (mouse tracheal rings [3]; Mus musculus, EC75 carbachol, Exp 1-3, read-out: EC50 relaxation of mouse tracheal rings, individual experiments): 8.09; pEC50 (mouse tracheal rings [3]; Mus musculus, pre-contracted with EC75 carbachol, average, read-out: EC50 relaxation of mouse tracheal rings): 8.15; pEC50 (human bronchial rings; Homo sapiens, 10 μM histamine, read-out: EC50 bronchodilating histamine precontracted human airways): 7.52; time to steady-state relaxation of human bronchial rings (human bronchial rings; histamine pre-contracted, 10 or 100 nM): less than 7 min; time to open airways (human bronchial rings; summary): < 7 min; relaxation of airway rings (mouse tracheal rings [4]; EC25 level of carbachol): 100%; bronchodilation of a single maximally contracted ring (mouse tracheal rings [4]; EC95 carbachol, highest dose (1 μM)): 38% and 37.7%; relaxation of airway rings (mouse tracheal rings [4]; EC95 level of carbachol): 42%; bronchodilation of cytokine-treated airways (mouse tracheal rings [5]): dramatically reduced; % relaxation after second treatment and highest dose (mouse tracheal rings [6]; EC50 carbachol): 78.6%; % relaxation after second treatment and highest dose (mouse tracheal rings [6]; EC75 carbachol): 42.7%; duration of bronchodilation after washout and re-challenge (mouse airway rings): short-acting; also recorded: quickly lost"
CC(=O)c1ccc(NC(=O)c2cc(Cl)ccc2O)cc1 [Cpd 7],2.45,5.19,5.58,
O=C(Nc1cc(Cl)cc(Cl)c1)c1cc(Cl)ccc1O [Cpd 13],3.50,6.15,6.70,
O=C(Nc1ccccc1Cl)c1cc(Cl)ccc1O [Cpd 11],9.24,5.52,6.48,
